This is an account of results in patent US20100015164A1, “Compositions and Methods for Modulating Osteoblast Cell Differentiation and Bone Generation Through HIF-1a” (THE UAB RESEARCH FOUNDATION, priority 2005, published 2010).

The structures appear in SMILES notation. “Also recorded” adds a separate entry of the source.

For assay [1], the system named is HIF-1α. To be noted: in vitro and in vivo, published studies; cited from earlier work.
The test system of assay [2] is HIF-1α. Put plainly: Western blotting of nuclear protein for HIF-1α in primary osteoblasts exposed to cobalt. Particulars: primary osteoblast cultures; 5, 10, or 50 ng/ml cobalt; 0, 3, 6, 12, and 24 hours of exposure. Format: cell-based, mouse. From the text:
The class of PHDs acting on HIF-1α require oxygen, iron, and 2-oxyglutarate as co-factors. Small molecules that block these enzymes are iron chelators, such as cobalt and desferrioxamine, or 2-oxyglutarate analogs such as L-mimosinc and 3,4 DHB, and DMOG. A schematic of the PHD enzyme and the structures of the 2-oxyglutarate analogs is reproduced in FIG. 5. A number of previous studies have shown an increase of VEGF and other HIF-1α target genes in cells treated with the small molecule PHD inhibitors selected here. Because the effects of the PHD inhibiting agents have not been tested in primary osteoblasts, studies were performed to evaluate their ability to increase HIF-1α. Osteoblasts were grown to near confluence, and then exposed to varying concentrations of cobalt chloride. At time zero, and after 3, 6, 12, and 24 hours of exposure, the cells were harvested and nuclear protein was extracted.

The subject of the next assay is VEGF. Put plainly: VEGF mRNA expression by real time PCR in osteoblasts exposed to cobalt chloride. It is filed as cell-based, mouse. Particulars: 5, 10, or 50 ng/mL cobalt chloride, 3, 12, or 24 hours. On the procedure: The osteoblasts were exposed to 5, 10, or 50 ng/mL of cobalt chloride. After, 3, 12, or 24 hours, cells were harvested and mRNA was collected. Real time PCR was performed with β-actin as control. […] Additionally, they lend support to the approach of using VEGF upregulation as assessed by real time PCR as a surrogate for HIF-1α activation in initial screening rather than the more time consuming approach of western blotting for HIF-1α.

For `CC(=O)N(O)CCCCCNC(=O)CCC(=O)N(O)CCCCCNC(=O)CCC(=O)N(O)CCCCCN` [desferrioxamine], the HIF-1α activation result in the assay with HIF-1α [1] was “increase HIF-1α activation in vitro and in vivo”.

Regarding `[Cl][Co][Cl]` [cobalt chloride], in the assay with HIF-1α [1], the HIF-1α activation entry was “increase HIF-1α activation in vitro and in vivo”. For the same molecule, the “nuclear HIF-1α (Western blot of nuclear extracts)” value in the assay on HIF-1α [2] was “time and dose dependent increase in nuclear HIF-1α; also recorded: increased nuclear accumulation after cobalt treatment at all doses”. For the same molecule, the “VEGF mRNA expression (real time PCR, β-actin as control)” value was “Marked upregulation of VEGF expression” with VEGF; “Marked upregulation of VEGF was seen after 12 and 24 hours” with VEGF (listed as cobalt).
